From patent US20040267283A1, “Method, device and kit for body decoration” (priority 2003, published 2004)

Tests used:
[1] = tested on: swine ear skin
Description: An in-vitro skin penetration study was conducted to determine which combination of parameters results in the maximum amount of active substance, e.g., color formulation, being delivered into the skin, i.e., the dermis and epidermis, but not through the skin, i.e., beneath the epidermis.
The in-vitro skin penetration study generally included the following test procedure. Decoration ink, as in embodiments of the present invention, was applied on a piece of swine ear skin. The swine skin was excised to full thickness (epidermis and dermis) to an approximate depth of 500-1000 μm. […]
At the end of the exposure period, the entire receptor compartment was drained and the solution reserved for subsequent analysis of the dye(s) and/or pigment(s). […] The depth of penetration was measured by noting the number of tape strippings required to remove the ink. […] The ink was determined quantitatively using customary analytical procedures (e.g., HPLC, UV-Vis spectrum, GC, radiolabeled detection, etc.), as applicable. […]
In these experiments, the enhancing effect of iontophoresis and/or electroosmosis on skin penetration of different dyes was assessed. […] The following properties were measured to determine the enhancing effect of iontophoretic induction on the dyes' skin penetration: uniformity of the dyeing by observation; and penetration depth by tape stripping. […]

[2] = tested on: human; conditions: reason for choosing the additional dyes; cited from earlier work
[3] = reason for choosing the additional dyes; cited from earlier work
[4] = tested on: swine skin; assay: In-vitro skin penetration, hydrogel patches on stretched skin (vertical diffusion cells without cell tops), tape stripping; format: in vitro ADME; conditions: for Depth of penetration (Tape strips = TS): skin cleaned with 10% lactic acid
Description: In the second part of the in-vitro skin penetration study, the color application included the use of a hydrogel patch and dye FD&C Red no. 40 and additional dyes, Acid Blue 1 (Blue V) and Indocyanine green, on the swine skin. All chemicals used were analytical grade, obtained from standard supply houses (Sigma, VWR, etc.). […] In these experiments, the depth of penetration was tested for the additional dyes using iontophoresis and/or electroosmosis. Additionally, extensive work was done in order to establish a shaped tattoo that is sharp and has strong color imprint. The experiments were also directed to the effect of the application duration on the tattoo life span. The following properties of the tattoo were measured to determine the effects of iontophoresis on the dyes and pigments' skin penetration: uniformity of the dyeing by observation; penetration depth by tape stripping; and water durability by washing the skin with tap water.
The experiments performed in this second part of the study are described below. Experiments 2.1-2.8 and 2.10-2.14 were conducted on in-vitro swine skin. Experiments 2.9, 2.15, and 2.16 were conducted on in-vivo human skin. FIGS. 6-14 illustrate the body decoration results from the experiments.
This experiment was conducted to determine the dye penetration depth of stretched skin, as would be the case on the subject's body area. In the vertical diffusion cells without the cell tops, the skin was stretched with the cell clamps. To increase the water content of the hydrogel in the patches, the hydrogel was soaked with ddw for 2 minutes. Excess water was then absorbed. Tissue paper heart-shaped pieces were soaked in Blue V solution (100 mg/ml in ddw). The blue heart shapes were placed on the patches' hydrogel and removed a few seconds later, leaving a blue heart-shaped imprint on the hydrogel. The hydrogel patches with the blue heart-shaped imprint were placed on the skin after the skin was cleaned with 10% lactic acid. In the active experiments, the patch wires were connected to a power supply tuned to 0.5 mAmp (0.5 mAmp/cm^2). […] The dye penetration depth was determined by tape stripping.
Blue heart-shaped tattoos were created, as described before in Experiment 6. This experiment was conducted to sharpen the tattoo by soaking the hydrogel in ddw for only few seconds.
In this experiment, the patches' hydrogel content was changed. Instead of KCl, the hydrogel contained NaCl. 100 mg/ml Blue V in ddw with 10% ethanol was used to create the blue heart-shaped imprint. The assay lasted 20 minutes and was done in duplicates. […] The penetration depth was lower with NaCl than KCl in Experiment 2.6.

[5] = tested on: human skin; assay: In-vivo human skin tattoo with imprinted hydrogel patches; conditions: Exp 2.16, human study, star shape, 50 mg/ml in ddw, 0.04 mAmp, 60 min, skin cleaned with 10% lactic acid
[6] = Solubility of the dyes; format: physicochemical
[7] = tested on: mice; conditions: cited from earlier work; for Toxicity, LD50: IP in mice
[8] = Solubility of the dyes; format: physicochemical; remark: listed apart in the source
Description: (§1) In the first part of the in-vitro skin penetration study, the color application included the use of dyes D&C Green no. 6, FD&C Blue no. 1, FD&C Yellow no. 6, and FD&C Red no. 40. All chemicals used were analytical grade, obtained from standard supply houses (Sigma, VWR, etc.). The dyes were dissolve in ddw and the solution conductivity was measured using a dedicated apparatus. The target conductivity was defined as a minimum of 1 mAmp/cm^3 current at 3 volts. If such conductivity was not attained, the dye concentration and/or the voltage were increased.

[9] = Solution conductivity of the dyes (current at applied voltage); format: physicochemical
Description: as §1, with “increased. See Table 1 for the solubility and conductivity of the dyes.” for “increased.”

[10] = tested on: rabbit; conditions: SC in rabbit; cited from earlier work

CC1(C)C(/C=C/C=C/C=C/C=C2\N(CCCCS(=O)(=O)O)c3ccc4ccccc4c3C2(C)C)=[N+](CCCCS(=O)(=O)[O-])c2ccc3ccccc3c21 [Green, Indocyanine green, reference compound]
Effect of iontophoresis on skin penetration depth [1]: not affected
Toxicity (approved for human injection) [2]: nontoxic
Solubility in water [3]: soluble in water

CCN(CC)c1ccc(C(=C2C=CC(=[N+](CC)CC)C=C2)c2ccc(S(=O)(=O)[O-])cc2S(=O)(=O)[O-])cc1.[Na+] [Blue V, Acid Blue 1]
Effect of iontophoresis on skin penetration depth [1]: increased
Depth of penetration (Tape strips = TS) ([4]; Exp 2.13, Active, Anode, hydrogel with NaCl, 100 mg/ml in ddw with 10% ethanol, current = 500 μA/cm^2, 20 min): Anode - TS# 3
Depth of penetration (Tape strips = TS) ([4]; Exp 2.13, Active, Cathode, hydrogel with NaCl, 100 mg/ml in ddw with 10% ethanol, current = 500 μA/cm^2, 20 min): Cathode - TS# >4
Depth of penetration (Tape strips = TS) ([4]; Exp 2.13, Passive, hydrogel with NaCl, 100 mg/ml in ddw with 10% ethanol, 20 min): TS# 3
Penetration depth with NaCl hydrogel compared with KCl hydrogel ([4]; Exp 2.13 compared with Exp 2.6): lower
Depth of penetration (Tape strips = TS) ([4]; Exp 2.6, Active, Anode, 100 mg/ml in ddw, stretched skin, current = 500 μA/cm^2, 30 min): Anode - TS# 5
Depth of penetration (Tape strips = TS) ([4]; Exp 2.6, Active, Cathode, 100 mg/ml in ddw, stretched skin, current = 500 μA/cm^2, 30 min): Cathode - TS# >6
Depth of penetration (Tape strips = TS) ([4]; Exp 2.6, Passive, 100 mg/ml in ddw, stretched skin, 30 min): TS# 4
Depth of penetration (Tape strips = TS) ([4]; Exp 2.8, Active, Anode, 100 mg/ml in ddw, hydrogel soaked in ddw for only few seconds, current = 500 μA/cm^2): Anode - TS# 4
Depth of penetration (Tape strips = TS) ([4]; Exp 2.8, Active, Cathode, 100 mg/ml in ddw, hydrogel soaked in ddw for only few seconds, current = 500 μA/cm^2): Cathode - TS# >7
Depth of penetration (Tape strips = TS) ([4]; Exp 2.8, Passive, 100 mg/ml in ddw, hydrogel soaked in ddw for only few seconds): TS# 4
Toxicity (approved for human injection) [2]: nontoxic
Time after which the dye completely faded (tattoo life span) ([5]; Active With polyester): after 10 days.
Time after which the dye completely faded (tattoo life span) ([5]; Active Without polyester): after 7 days.
Solubility in water [3]: soluble in water

Cc1ccc(Nc2ccc(Nc3ccc(C)cc3)c3c2C(=O)c2ccccc2C3=O)cc1 [Green no. 6, D&C Green no. 6]
Solubility ([6]; 2.5 mg/ml + 30% ethanol): Insoluble
Solubility ([6]; 10 mg/ml + 30% ethanol): Insoluble
Toxicity, LD50 [7]: LD50 = 0.25 gm/kg
Solubility ([8]; 10 mg/ml in water): Insoluble

O=S(=O)([O-])c1ccc(N=Nc2c(O)ccc3cc(S(=O)(=O)[O-])ccc23)cc1.[Na+].[Na+] [Yellow no. 6, FD&C Yellow no. 6]
Current ([9]; 20 mg/ml in water, 3 V): 1.3 mA
Toxicity, LD50 [7]: LD50 = 4.6 gm/kg

CCN(Cc1cccc(S(=O)(=O)[O-])c1)c1ccc(C(=C2C=CC(=[N+](CC)Cc3cccc(S(=O)(=O)[O-])c3)C=C2)c2ccccc2S(=O)(=O)[O-])cc1.[Na+].[Na+] [Blue no. 1, FD&C Blue no. 1]
Current ([9]; 2 mg/ml in water, 3 V): None
Current ([9]; 6 mg/ml in water, 3 V): ˜0.3 mA
Current ([9]; 6 mg/ml in water, 3.92 V): 1 mA
Current ([9]; 10 mg/ml in water, 3 V): ˜0.4 mA
Current ([9]; 10 mg/ml in water, 3.69 V): 1 mA
Current ([9]; 20 mg/ml in water, 3 V): ˜0.4 mA
Current ([9]; 20 mg/ml in water, 3.69 V): 1 mA
Toxicity ([7]; SC in mice): 5.5 gm/kg
Solubility ([8]; 2 mg/ml in water): Soluble
Solubility ([8]; 6 mg/ml in water): Soluble
Solubility ([8]; 10 mg/ml in water): Soluble
Solubility ([8]; 20 mg/ml in water): Soluble

COc1cc(S(=O)(=O)[O-])c(C)cc1N=Nc1c(O)ccc2cc(S(=O)(=O)[O-])ccc12.[Na+].[Na+] [Red no. 40, FD&C Red no. 40]
Current ([9]; 10 mg/ml in water, 3 V): ˜0.3 mA
Current ([9]; 10 mg/ml in water, 4.15 V): 1 mA
Current ([9]; 20 mg/ml in water, 3 V): 1.1 mA
Toxicity, LD50 [10]: LD50 > 10 gm/kg,
Solubility ([8]; 10 mg/ml in water): Soluble
Solubility ([8]; 20 mg/ml in water): Soluble
